Laboratory results from PubChem BioAssay (NCI).
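Five concentrations, 48 hours, 96-well plates. GI50 marks 50% less growth. TGI: total growth inhibition.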

Assays:
Assay in all cases: growth of human tumour cells (NCI), 48 h
DU-145 prostate = system: DU-145 prostate
HS 578T breast = system: HS 578T breast
M14 melanoma = system: M14 melanoma
MDA-MB-231 breast = system: MDA-MB-231 breast
MDA-MB-435 = system: MDA-MB-435
MDA-N = system: MDA-N
PC-3 prostate = system: PC-3 prostate
SR leukemia = system: SR leukemia
T-47D breast = system: T-47D breast
TK-10 renal = system: TK-10 renal
KM20L2 colon = system: KM20L2 colon
SN12K1 renal = system: SN12K1 renal
M19-MEL melanoma = system: M19-MEL melanoma

Clc1nc(Cl)c(Cl)c(Cl)n1
TGI (DU-145 prostate): 31.7 µM | TGI (HS 578T breast): 53.7 µM | TGI (M14 melanoma): 34.4 µM | TGI (MDA-MB-231 breast): 41.3 µM | TGI (MDA-MB-435): > 61 µM | TGI (MDA-N): 37.9 µM | TGI (PC-3 prostate): 34.4 µM | TGI (SR leukemia): 14.6 µM | TGI (T-47D breast): 41 µM | TGI (TK-10 renal): 37.3 µM

Cc1cc(O)c2c(c1O)C(=O)C13C(=C2O)C(=O)C2C(O)C1C1C(O)C3C(=O)C3=C(O)c4c(O)cc(C)c(O)c4C(=O)C321 (stereo unspecified)
TGI (KM20L2 colon): > 100 µM | TGI (SN12K1 renal): 0.848 µM

CCOC(=O)c1sc2nc(SC)nc3c2c1NC(=O)CN3c1cccc(F)c1
TGI (DU-145 prostate): 52.7 µM | TGI (HS 578T breast): 59.7 µM | TGI (M14 melanoma): 50 µM | TGI (MDA-MB-231 breast): 41.3 µM | TGI (MDA-MB-435): > 100 µM | TGI (MDA-N): > 100 µM | TGI (PC-3 prostate): 34.4 µM | TGI (SR leukemia): > 100 µM | TGI (TK-10 renal): 86.8 µM

CCN(CC)CCCOC(=O)/C=C/c1c(C)[nH]c(=O)[nH]c1=O
TGI (KM20L2 colon): > 625 µM | TGI (M19-MEL melanoma): > 625 µM | TGI (SN12K1 renal): > 625 µM

O=C(NCCCCCCNC(=O)n1cc(F)c(=O)[nH]c1=O)NCCCOCCOCCCNC(=O)C(O)C(O)C(O)C(O)CO (stereo unspecified)
TGI (KM20L2 colon): > 2.5 µM | TGI (M19-MEL melanoma): > 2.5 µM | TGI (SN12K1 renal): > 2.5 µM

C=C1C[C@@H](O)C[C@@]2(C)C[C@@H]3OC(=O)C(=C)[C@@H]3C[C@H]12
TGI (KM20L2 colon): 25.4 µM | TGI (M19-MEL melanoma): > 100 µM | TGI (SN12K1 renal): 35.7 µM

Cc1c2c(cc3c1[nH]c1ccccc13)C=NCC2
TGI (KM20L2 colon): 34.5 µM | TGI (M19-MEL melanoma): 33 µM | TGI (SN12K1 renal): 14.4 µM

CC(=O)NCCC1CN(C(=O)/C=C\C#C[Si](C)(C)C)c2ccccc21 (stereo unspecified)
TGI (DU-145 prostate): > 100 µM | TGI (HS 578T breast): > 100 µM | TGI (M14 melanoma): 45.5 µM | TGI (MDA-MB-231 breast): 67.3 µM | TGI (MDA-MB-435): > 100 µM | TGI (MDA-N): > 100 µM | TGI (PC-3 prostate): > 100 µM | TGI (T-47D breast): 86.4 µM | TGI (TK-10 renal): > 100 µM

O=C(Nc1c[nH]c(=O)[nH]c1=O)C(Cl)Cl
TGI (DU-145 prostate): > 100 µM | TGI (M14 melanoma): > 100 µM | TGI (MDA-MB-231 breast): > 100 µM | TGI (MDA-MB-435): > 100 µM | TGI (MDA-N): > 100 µM | TGI (PC-3 prostate): > 100 µM | TGI (T-47D breast): > 100 µM | TGI (TK-10 renal): > 100 µM

C/C(=N\NS(=O)(=O)c1ccccc1)c1ccccc1
TGI (KM20L2 colon): > 100 µM | TGI (SN12K1 renal): > 100 µM

O=C1CC(=O)c2c(O)cc(O)c(c2O)-c2c(ccc(O)c2O)C2=CC(=O)c3c(O)cc(O)c(c3O2)-c2c1ccc(O)c2O (tested in a mixture with another compound)
TGI (DU-145 prostate): > 50 µM | TGI (HS 578T breast): > 50 µM | TGI (M14 melanoma): > 50 µM | TGI (MDA-MB-231 breast): > 50 µM | TGI (MDA-MB-435): > 50 µM | TGI (MDA-N): > 50 µM | TGI (PC-3 prostate): > 50 µM | TGI (SR leukemia): > 50 µM | TGI (T-47D breast): > 50 µM | TGI (TK-10 renal): > 50 µM

O=C(CC/C=C(/CS(=O)(=O)c1ccccc1)S(=O)(=O)c1ccccc1)c1ccccc1
TGI (KM20L2 colon): > 100 µM | TGI (M14 melanoma): > 100 µM | TGI (SR leukemia): > 100 µM | TGI (TK-10 renal): > 100 µM

CC(=O)OCC1OC(n2cc(F)c(=O)[nH]c2=O)C(N)C(OC(C)=O)C1OC(C)=O (stereo unspecified)
TGI (KM20L2 colon): > 100 µM | TGI (M19-MEL melanoma): > 100 µM | TGI (SN12K1 renal): > 100 µM

Nc1nc2c(c(=O)[nH]1)N(C=O)C(CNc1ccc(C(=O)N[C@@H](CCC(=O)O)C(=O)O)cc1)CN2 (stereo partly specified)
TGI (KM20L2 colon): > 125 µM | TGI (M19-MEL melanoma): > 125 µM | TGI (SN12K1 renal): > 125 µM

CC(=O)[C@@H]1CCC=C2CC[C@]3(C)[C@@H](CC[C@@H]4[C@@]5(C)CCCNC(C)(C)[C@@H]5CC[C@]43C)[C@H]21
GI50 (DU-145 prostate): 1.77 µM | TGI (DU-145 prostate): 3.33 µM | GI50 (HS 578T breast): 1.87 µM | TGI (HS 578T breast): 4.39 µM | GI50 (MDA-MB-231 breast): 1.81 µM | TGI (MDA-MB-231 breast): 3.35 µM | GI50 (MDA-MB-435): 1.87 µM | TGI (MDA-MB-435): 3.49 µM | GI50 (PC-3 prostate): 1.65 µM | TGI (PC-3 prostate): 3.06 µM | GI50 (T-47D breast): 1.72 µM | TGI (T-47D breast): 3.47 µM | GI50 (TK-10 renal): 1.88 µM | TGI (TK-10 renal): 3.45 µM
